# From ChEMBL document CHEMBL5291721, “A preclinical secondary pharmacology resource illuminates target-adverse drug reaction associations of marketed drugs” (Nat Commun, 2023)
# Legend:
# [1] = target: T1, Alpha-1A adrenergic receptor (Homo sapiens, UniProt P35348)
# T1 sequence (P35348 whole entry): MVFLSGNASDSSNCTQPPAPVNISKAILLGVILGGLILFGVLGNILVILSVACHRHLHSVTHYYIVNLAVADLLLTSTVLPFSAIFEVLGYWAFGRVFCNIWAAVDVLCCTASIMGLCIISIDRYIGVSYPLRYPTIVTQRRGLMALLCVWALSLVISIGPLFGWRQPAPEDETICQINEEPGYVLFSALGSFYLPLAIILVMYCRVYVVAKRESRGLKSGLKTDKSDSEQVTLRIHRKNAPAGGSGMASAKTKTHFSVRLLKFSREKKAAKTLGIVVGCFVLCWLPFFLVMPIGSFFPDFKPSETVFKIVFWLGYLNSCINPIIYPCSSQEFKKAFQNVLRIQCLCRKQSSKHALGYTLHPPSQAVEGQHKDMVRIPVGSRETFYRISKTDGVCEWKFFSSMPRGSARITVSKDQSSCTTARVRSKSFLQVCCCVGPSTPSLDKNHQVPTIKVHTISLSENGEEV
# [2] = target: T2, Type-1 angiotensin II receptor (Homo sapiens, UniProt P30556)
# T2 sequence (P30556 whole entry): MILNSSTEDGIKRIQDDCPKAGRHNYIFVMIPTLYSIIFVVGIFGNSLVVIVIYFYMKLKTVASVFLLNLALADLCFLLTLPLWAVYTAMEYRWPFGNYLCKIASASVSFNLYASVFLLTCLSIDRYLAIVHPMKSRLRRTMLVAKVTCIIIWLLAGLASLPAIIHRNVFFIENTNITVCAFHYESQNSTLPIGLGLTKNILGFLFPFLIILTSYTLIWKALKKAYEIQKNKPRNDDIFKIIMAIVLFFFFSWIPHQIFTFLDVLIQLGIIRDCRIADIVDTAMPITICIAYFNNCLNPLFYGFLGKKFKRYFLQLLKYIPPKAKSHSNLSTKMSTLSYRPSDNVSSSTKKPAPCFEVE
# [3] = target: Vasopressin V1a receptor (Homo sapiens, UniProt P37288)
# [4] = target: T3, Muscarinic acetylcholine receptor M2 (Homo sapiens, UniProt P08172); assay type: functional, cell-based
# T3 sequence (P08172 whole entry): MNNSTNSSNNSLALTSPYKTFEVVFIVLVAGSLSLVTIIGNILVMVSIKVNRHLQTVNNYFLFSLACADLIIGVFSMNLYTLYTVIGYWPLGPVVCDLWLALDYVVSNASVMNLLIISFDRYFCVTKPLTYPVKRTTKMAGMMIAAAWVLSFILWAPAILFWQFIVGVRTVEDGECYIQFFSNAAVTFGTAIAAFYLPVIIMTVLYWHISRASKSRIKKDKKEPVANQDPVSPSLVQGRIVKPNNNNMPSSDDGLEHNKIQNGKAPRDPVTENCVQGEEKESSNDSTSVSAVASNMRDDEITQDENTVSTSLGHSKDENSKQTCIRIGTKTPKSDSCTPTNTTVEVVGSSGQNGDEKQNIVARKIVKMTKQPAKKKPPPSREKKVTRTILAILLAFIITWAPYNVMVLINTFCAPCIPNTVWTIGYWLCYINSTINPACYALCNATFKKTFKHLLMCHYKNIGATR
# [5] = target: T3, Muscarinic acetylcholine receptor M2; assay type: functional, cell-based; remark: listed apart in the source
# [6] = target: Neuronal acetylcholine receptor subunit alpha-4 (Homo sapiens, UniProt P43681)
# [7] = target: T4, 5-hydroxytryptamine receptor 3A (Homo sapiens, UniProt P46098); assay type: functional
# T4 sequence (P46098 whole entry): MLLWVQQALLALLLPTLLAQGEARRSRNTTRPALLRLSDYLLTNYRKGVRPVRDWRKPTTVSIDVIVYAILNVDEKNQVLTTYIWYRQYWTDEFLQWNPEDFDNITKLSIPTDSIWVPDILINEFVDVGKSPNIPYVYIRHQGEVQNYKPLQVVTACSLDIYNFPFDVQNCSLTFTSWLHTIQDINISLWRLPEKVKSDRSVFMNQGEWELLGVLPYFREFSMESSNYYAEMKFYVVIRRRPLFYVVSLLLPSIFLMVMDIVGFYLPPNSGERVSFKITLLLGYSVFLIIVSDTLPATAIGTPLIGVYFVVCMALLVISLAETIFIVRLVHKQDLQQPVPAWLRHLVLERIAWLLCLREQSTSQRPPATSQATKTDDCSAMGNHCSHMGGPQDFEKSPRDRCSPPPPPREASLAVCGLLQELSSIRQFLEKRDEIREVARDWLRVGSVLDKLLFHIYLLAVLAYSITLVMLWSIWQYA
# [8] = target: Voltage-gated inwardly rectifying potassium channel KCNH2 (Homo sapiens, UniProt Q12809); assay type: functional; conditions: read-out: AC50
# [9] = target: Melanocortin receptor 3 (Homo sapiens, UniProt P41968)
# [10] = target: Kappa-type opioid receptor (Homo sapiens, UniProt P41145)
# [11] = target: T5, Amine oxidase [flavin-containing] A (Homo sapiens, UniProt P21397); assay type: functional
# T5 sequence (P21397 whole entry): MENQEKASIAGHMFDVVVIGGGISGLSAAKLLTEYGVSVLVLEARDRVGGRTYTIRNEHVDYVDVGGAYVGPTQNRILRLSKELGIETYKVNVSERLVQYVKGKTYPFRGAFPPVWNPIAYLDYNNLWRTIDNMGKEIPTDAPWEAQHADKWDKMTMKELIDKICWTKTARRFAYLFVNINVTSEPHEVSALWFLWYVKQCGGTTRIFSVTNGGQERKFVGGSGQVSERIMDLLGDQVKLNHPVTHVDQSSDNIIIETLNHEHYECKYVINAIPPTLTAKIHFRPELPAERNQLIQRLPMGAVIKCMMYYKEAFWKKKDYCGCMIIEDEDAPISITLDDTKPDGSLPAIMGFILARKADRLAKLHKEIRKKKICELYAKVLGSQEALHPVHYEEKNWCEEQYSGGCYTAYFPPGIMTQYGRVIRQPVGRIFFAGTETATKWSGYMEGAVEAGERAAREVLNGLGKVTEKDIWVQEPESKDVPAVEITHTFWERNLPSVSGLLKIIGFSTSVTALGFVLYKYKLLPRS
# Note: assay procedure not described here.
# Kappa-type opioid receptor, sequence (P41145 whole entry): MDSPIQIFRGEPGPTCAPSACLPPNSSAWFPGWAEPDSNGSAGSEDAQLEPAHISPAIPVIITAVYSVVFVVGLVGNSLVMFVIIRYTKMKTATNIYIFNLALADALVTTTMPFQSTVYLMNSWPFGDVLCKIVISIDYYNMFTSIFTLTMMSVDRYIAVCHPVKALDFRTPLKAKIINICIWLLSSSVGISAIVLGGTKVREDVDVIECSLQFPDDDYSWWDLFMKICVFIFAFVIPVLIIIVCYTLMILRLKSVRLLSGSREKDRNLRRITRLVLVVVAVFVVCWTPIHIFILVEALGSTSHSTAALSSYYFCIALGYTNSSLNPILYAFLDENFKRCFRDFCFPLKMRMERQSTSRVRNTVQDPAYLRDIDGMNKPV
# Melanocortin receptor 3, sequence (P41968 whole entry): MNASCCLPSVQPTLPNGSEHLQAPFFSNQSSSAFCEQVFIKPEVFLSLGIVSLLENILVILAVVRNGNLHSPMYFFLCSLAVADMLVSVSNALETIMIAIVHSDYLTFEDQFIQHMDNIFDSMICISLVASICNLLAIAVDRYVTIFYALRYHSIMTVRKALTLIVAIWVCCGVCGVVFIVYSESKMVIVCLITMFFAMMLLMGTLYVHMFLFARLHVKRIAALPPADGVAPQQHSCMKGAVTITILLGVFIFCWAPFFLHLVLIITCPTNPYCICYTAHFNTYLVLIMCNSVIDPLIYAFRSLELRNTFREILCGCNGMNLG
# Neuronal acetylcholine receptor subunit alpha-4, sequence (P43681 whole entry): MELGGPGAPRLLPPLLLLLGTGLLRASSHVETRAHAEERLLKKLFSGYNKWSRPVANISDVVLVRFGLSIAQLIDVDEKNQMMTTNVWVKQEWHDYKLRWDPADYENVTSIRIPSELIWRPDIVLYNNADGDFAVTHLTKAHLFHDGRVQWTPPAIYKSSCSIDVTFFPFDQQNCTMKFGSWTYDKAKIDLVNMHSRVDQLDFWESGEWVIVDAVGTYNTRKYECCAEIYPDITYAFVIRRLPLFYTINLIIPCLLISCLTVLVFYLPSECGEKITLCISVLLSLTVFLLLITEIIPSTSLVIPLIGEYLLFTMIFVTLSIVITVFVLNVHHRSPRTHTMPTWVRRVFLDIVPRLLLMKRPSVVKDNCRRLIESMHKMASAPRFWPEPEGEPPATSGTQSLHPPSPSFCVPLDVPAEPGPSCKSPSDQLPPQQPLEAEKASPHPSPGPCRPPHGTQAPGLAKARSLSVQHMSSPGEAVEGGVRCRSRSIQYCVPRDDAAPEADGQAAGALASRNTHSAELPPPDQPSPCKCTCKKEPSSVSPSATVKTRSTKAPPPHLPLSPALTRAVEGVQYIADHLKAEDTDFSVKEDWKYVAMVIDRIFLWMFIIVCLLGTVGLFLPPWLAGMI
# Vasopressin V1a receptor, sequence (P37288 whole entry): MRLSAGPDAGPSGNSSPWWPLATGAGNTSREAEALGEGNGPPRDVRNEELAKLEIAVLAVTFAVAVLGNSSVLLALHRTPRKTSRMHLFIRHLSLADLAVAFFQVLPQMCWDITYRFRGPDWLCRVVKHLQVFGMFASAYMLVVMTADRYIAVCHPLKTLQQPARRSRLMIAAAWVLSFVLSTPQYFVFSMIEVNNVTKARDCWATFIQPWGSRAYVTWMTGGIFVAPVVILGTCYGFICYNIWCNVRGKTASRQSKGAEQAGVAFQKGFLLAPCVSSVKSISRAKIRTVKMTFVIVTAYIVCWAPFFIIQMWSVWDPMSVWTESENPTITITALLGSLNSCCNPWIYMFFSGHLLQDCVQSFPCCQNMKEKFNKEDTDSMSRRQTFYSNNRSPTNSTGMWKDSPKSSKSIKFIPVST
# Voltage-gated inwardly rectifying potassium channel KCNH2, sequence (Q12809 whole entry): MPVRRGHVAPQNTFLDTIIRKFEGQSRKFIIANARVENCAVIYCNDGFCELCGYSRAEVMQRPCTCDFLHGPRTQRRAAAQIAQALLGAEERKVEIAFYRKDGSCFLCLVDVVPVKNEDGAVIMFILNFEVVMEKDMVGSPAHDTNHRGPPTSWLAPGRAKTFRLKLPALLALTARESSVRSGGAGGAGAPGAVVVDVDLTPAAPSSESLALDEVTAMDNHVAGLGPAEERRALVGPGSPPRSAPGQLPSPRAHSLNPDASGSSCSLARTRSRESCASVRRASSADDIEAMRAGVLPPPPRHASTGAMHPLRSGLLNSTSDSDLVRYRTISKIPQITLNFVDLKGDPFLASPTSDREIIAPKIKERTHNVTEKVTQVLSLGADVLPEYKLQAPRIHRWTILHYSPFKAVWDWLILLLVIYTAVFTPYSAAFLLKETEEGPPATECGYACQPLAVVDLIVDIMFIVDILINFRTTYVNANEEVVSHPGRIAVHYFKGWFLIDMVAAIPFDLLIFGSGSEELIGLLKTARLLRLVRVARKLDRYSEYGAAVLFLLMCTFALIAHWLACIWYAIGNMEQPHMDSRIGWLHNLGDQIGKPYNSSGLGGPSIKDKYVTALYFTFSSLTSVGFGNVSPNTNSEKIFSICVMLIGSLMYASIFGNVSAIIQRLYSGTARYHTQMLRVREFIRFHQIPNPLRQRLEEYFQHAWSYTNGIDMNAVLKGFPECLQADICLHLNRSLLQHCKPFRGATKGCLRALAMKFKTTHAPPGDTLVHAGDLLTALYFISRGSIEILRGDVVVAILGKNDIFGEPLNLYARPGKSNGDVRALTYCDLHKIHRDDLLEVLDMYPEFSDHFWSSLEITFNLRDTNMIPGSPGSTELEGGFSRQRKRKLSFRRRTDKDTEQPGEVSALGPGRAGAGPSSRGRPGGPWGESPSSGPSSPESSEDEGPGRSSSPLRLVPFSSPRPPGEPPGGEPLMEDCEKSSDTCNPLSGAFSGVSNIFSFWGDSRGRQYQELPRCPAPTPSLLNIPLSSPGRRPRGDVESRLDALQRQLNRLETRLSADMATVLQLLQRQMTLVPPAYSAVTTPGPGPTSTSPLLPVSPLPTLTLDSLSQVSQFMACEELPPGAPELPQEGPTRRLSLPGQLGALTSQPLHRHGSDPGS
SMILES,AC50 [1],AC50 [2],AC50 [3],AC50 [4],AC50 [5],AC50 [6],AC50 [7],AC50 [8],AC50 [9],AC50 [10],AC50 [11]
CN1C(=O)CCS(=O)(=O)C1c1ccc(Cl)cc1 (stereo not given) [CHLORMEZANONE],> 30 µM,> 10 µM,> 10 µM,> 10 µM,> 10 µM,> 10 µM,> 30 µM,> 30 µM,> 10 µM,> 10 µM,> 30 µM
Cc1cn([C@H]2C[C@H](N=[N+]=[N-])[C@@H](CO)O2)c(=O)[nH]c1=O [ZIDOVUDINE],> 10 µM,> 30 µM,> 10 µM,> 10 µM,> 10 µM,> 10 µM,> 30 µM,> 30 µM,> 30 µM,> 10 µM,> 10 µM
NS(=O)(=O)Cc1noc2ccccc12 [ZONISAMIDE],> 10 µM,> 10 µM,> 10 µM,> 10 µM,> 10 µM,> 10 µM,> 30 µM,> 30 µM,> 10 µM,> 10 µM,> 10 µM
CCCN1C[C@H](CSC)C[C@@H]2c3cccc4[nH]cc(c34)C[C@H]21 [PERGOLIDE],1.78 µM,> 30 µM,> 30 µM,> 30 µM,> 30 µM,> 30 µM,> 30 µM,0.22 µM,> 30 µM,12.9 µM,> 30 µM
Nc1ccn([C@H]2CC[C@@H](CO)O2)c(=O)n1 [ZALCITABINE],> 10 µM,> 10 µM,> 10 µM,> 10 µM,> 10 µM,> 10 µM,> 30 µM,> 30 µM,> 10 µM,> 10 µM,> 10 µM
